Here are results for six compounds from PMC12652692, “Synthesis and In Vitro Anticancer Evaluation of Novel Phosphonium Derivatives of Chrysin” (International Journal of Molecular Sciences, 2025).

Each structure is given as a SMILES string.

What all share (assay): NCI60 five-dose screen
Assay type in all cases: cell-based

Test [1] relates to A498. As to conditions: Homo sapiens; A498, Renal Cancer. How it is done:
(§1) Since all new conjugates (3a–h) had notable antiproliferative activities on several tumor cell lines in the course of the one-dose screening, they were subjected to a five-dose test. […] J. Mol. Sci. 2025, 26, 11063 10 of 10 S.3. NCI60 Screening A detailed description of the NCI screening procedures can also be found on the website of NCI [39], and in our previous work. S.3.1. One-Dose Screen All candidates were examined at first at a single high dose (10 μM) in the full NCI60 cell panel. The value reported for the one-dose test is growth relative to the no-drug control and relative to the time zero number of cells. This made possible the disclosure of both growth inhibition (numbers between 0 and 100) and lethality (numbers less than 0). For example, a value of 100 means no growth inhibition. A value of 20 would mean 80% growth inhibition. A value of 0 means no net growth over the course of the analysis. A value of −20 would mean 20% lethality. A value of −100 means all cells are dead. S.3.2. […] The human tumor cell lines of the cancer screening panel were grown in RPMI 1640 medium containing 5% fetal bovine serum and 2 mM l-glutamine. Characteristically, cells were injected in 96-well microtiter plates in 0.1 mL at plating densities ranging from 5000 to 40,000 cells/well, depending on the doubling time of individual cell lines. After cell inoculation, the microtiter plates were incubated at 37 °C, 5% carbon dioxide, 95% air, and 100% relative humidity for 24 hours before the addition of tested compounds. After 24 hours, 2 plates of each cell line were fixed in situ with Cl3COOH (TCA), to represent a measurement of the cell population for each cell line at the time of drug addition (tz). Tested compounds were solubilized in DMSO at 400-fold the desired final maximum test concentration and stored frozen before application. In the course of the drug addition, an aliquot of frozen concentrate was thawed and diluted to twice the desired final maximum test concentration with a complete medium containing 50 μg mL−1 gentamicin. Additional four, 10-fold or ½ log serial dilutions were produced to furnish a total of five drug concentrations plus control. Aliquots of 0.1 mL of these different drug dilutions were added to the appropriate microtiter wells already containing 0.1 mL of medium, resulting in the required final drug concentrations. Following drug addition, the plates were incubated at 37 °C, 5% carbon dioxide, 95% air, and 100% relative humidity for an additional 48 hours. For adherent cells, the test was finished by the addition of cold Cl3COOH. Cells were fixed in situ by the addition of 50 μL of cold 50% (w/v) Cl3COOH, and incubated at 4 °C for 1 hour. The supernatant was discarded, and the plates were washed with H2O (5×) and dried in air. Sulforhodamine B (SRB) solution (0.1 mL) at 0.4% (w/v) in 1% CH3COOH was added to each well, and plates were incubated at RT for 10 min. After staining, the unbound dye was removed by washing five times with 1% CH3COOH, and the plates were dried in the air. The bound stain is afterward solubilized with a 10 mM trizma base, and the absorbance is read on an automated plate reader at λ = 515 nm. Utilizing the seven absorbance measurements [time zero (tz), control growth (c), and test growth in the presence of the drug at the five concentration levels (ti)], the percentage growth was determined at each of the drug concentration levels. Growth inhibition (%) was calculated as: [(ti − tz)/(c − tz)] × 100, for concentrations where ti ≥ tz (1) [(ti − tz)/(tz)] × 100, for concentrations where ti < tz. (2) Three dose‒response parameters were calculated as follows. GI50 (growth inhibition of 50%) was determined from Equation (3), which is the drug concentration resulting in a 50% reduction in the net protein increase (as measured by SRB staining) in control cells in the course of the drug incubation. [(ti − tz)/(c − tz)] × 100 = 50 (3)

The test system of test [2] is A549/ATCC. As to conditions: Homo sapiens, Non-small-Cell Lung Cancer. Here is the method:
as §1

In test [3] the test system is ACHN. As to conditions: Homo sapiens, Renal Cancer. Here is the method:
as §1

For test [4], the system named is BT-549. As to conditions: Homo sapiens; BT-549, Breast Cancer. How it is done: as §1
Test [5] relates to DU-145. As to conditions: Homo sapiens; DU-145, Prostate Cancer. How it is done:
as §1

The test system of test [6] is HL-60(TB). As to conditions: Homo sapiens, Leukemia. Here is the method:
as §1

Test [7] concerns HOP-92. As to conditions: Homo sapiens; HOP-92, Non-small-Cell Lung Cancer. Here is the method: as §1
The subject of test [8] is K-562. As to conditions: Homo sapiens, K562; K-562, Leukemia. Here is the method:
as §1

The test system of test [9] is KM12. As to conditions: Homo sapiens; KM12, Colon Cancer. How it is done:
as §1

For test [10], the system named is M14. As to conditions: Homo sapiens; M14, Melanoma. How it is done: as §1
Test [11] concerns NCI-H460. As to conditions: Homo sapiens; NCI-H460, Non-small-Cell Lung Cancer. How it is done: as §1
The test system of test [12] is NCI/ADR-RES. As to conditions: Homo sapiens, Ovarian Cancer. How it is done: as §1
Test [13] relates to OVCAR-3. As to conditions: Homo sapiens; OVCAR-3, Ovarian Cancer. Here is the method:
as §1

Test [14] has as its system OVCAR-5. As to conditions: Homo sapiens; OVCAR-5, Ovarian Cancer. Here is the method:
as §1

For test [15], the system named is SF-295. As to conditions: Homo sapiens; SF-295, CNS Cancer. Here is the method: as §1
The test system of test [16] is SF-539. As to conditions: Homo sapiens; SF-539, CNS Cancer. Here is the method:
as §1

Test [17] relates to SK-MEL-2. As to conditions: Homo sapiens; SK-MEL-2, Melanoma. How it is done: as §1
Test [18] deals with SK-OV-3. As to conditions: Homo sapiens; SK-OV-3, Ovarian Cancer. Here is the method:
as §1

Test [19] relates to SW-620. As to conditions: Homo sapiens; SW-620, Colon Cancer. Here is the method:
as §1

For test [20], the system named is T-47D. As to conditions: Homo sapiens, T47D, Breast Cancer. How it is done:
as §1

Test [21] deals with UACC-257. As to conditions: Homo sapiens; UACC-257, Melanoma. Here is the method: as §1
Test [22] has as its system UO-31. As to conditions: Homo sapiens; UO-31, Renal Cancer. Here is the method: as §1

On to `O=c1cc(-c2ccccc2)oc2cc(OCCCC[P+](c3ccccc3)(c3ccccc3)c3ccccc3)cc(O)c12` [3a], for which the GI50 (usually the concentration giving 50% growth inhibition) in test [1] stood at 422 nM; in [2], 908 nM; in test [3] it was 633 nM; in [4] it was 257 nM; in [5], 507 nM; in test [6], 167 nM. Besides, the GI50 stood at 234 nM in [7]; 216 nM in test [8]; 401 nM in test [9]; 378 nM in [10]; 321 nM in test [11]; 3290 nM in test [12]. Moreover, the GI50 in test [13] turned out to be 368 nM; in [14], 1150 nM; in [15] it was 297 nM; in test [16] it was 380 nM; in [17], 238 nM; in test [18], 329 nM. Also, the GI50 came out at 343 nM in test [19], 228 nM in test [20], 282 nM in test [21] and 1240 nM in test [22].
As to `Cc1ccc([P+](CCCCOc2cc(O)c3c(=O)cc(-c4ccccc4)oc3c2)(c2ccc(C)cc2)c2ccc(C)cc2)cc1` [3b], the GI50 was determined as 400 nM in [1]; 393 nM in test [2]; 265 nM in [3]; 344 nM in test [4]; 223 nM in test [5]; 140 nM in [6]. In addition, the GI50 in [7] came to 163 nM; in test [8], 137 nM; in test [9], 160 nM; in test [10], 331 nM; in [11] it was 357 nM; in test [12], 1180 nM. Also, the GI50 in [13] amounted to 196 nM; in [14], 684 nM; in test [15], 215 nM; in test [16], 498 nM; in test [17] it was 246 nM; in test [18], 301 nM. Further, the GI50 in [19] worked out at 354 nM; in test [20], 105 nM; in test [21], 367 nM; in test [22], 177 nM.
For the compound `COc1ccc([P+](CCCCOc2cc(O)c3c(=O)cc(-c4ccccc4)oc3c2)(c2ccc(OC)cc2)c2ccc(OC)cc2)cc1` [3c], the GI50 amounted to 1570 nM in [1]; 600 nM in [2]; 1280 nM in [3]; 349 nM in [4]; 410 nM in test [5]; 288 nM in test [6]. The GI50 was determined as 252 nM in [7]; 376 nM in test [8]; 207 nM in test [9]; 478 nM in test [10]; 371 nM in test [11]; 2600 nM in [12]. For the same compound, the GI50 in [13] came out at 288 nM; in [14], 852 nM; in test [15] it was 1060 nM; in test [16], 410 nM; in [17], 301 nM; in test [18], 382 nM. Besides, the GI50 in [19] was 351 nM; in test [20] it was 302 nM; in test [21], 277 nM; in test [22], 1480 nM.
With `O=c1cc(-c2ccccc2)oc2cc(OCCCC[P+](c3ccc(F)cc3)(c3ccc(F)cc3)c3ccc(F)cc3)cc(O)c12` [3d], the GI50 was determined as 2070 nM in test [1]; 3210 nM in test [2]; 3230 nM in test [3]; 1610 nM in test [4]; 1720 nM in test [5]; 1340 nM in test [6]. The GI50 was 1320 nM in [7]; 1400 nM in [8]; 1700 nM in test [9]; 1750 nM in [10]; 2130 nM in [11]; 15900 nM in test [12]. For the same compound, the GI50 in test [13] stood at 1420 nM; in test [14] it was 3000 nM; in test [15] it was 1520 nM; in test [16] it was 1930 nM; in [17], 1730 nM; in [18], 1620 nM. Further, the GI50 in [19] was 1460 nM; in test [20], 1450 nM; in test [21], 1660 nM; in test [22], 1850 nM.
Consider `O=c1cc(-c2ccccc2)oc2cc(OCCCC[P+](C3CCCCC3)(C3CCCCC3)C3CCCCC3)cc(O)c12` [3e], for which the GI50 came out at 1690 nM in test [1]; 1330 nM in [2]; 1520 nM in [3]; 709 nM in test [4]; 1240 nM in [5]; 184 nM in test [6]. Besides, the GI50 in test [7] was 211 nM; in test [8], 402 nM; in test [9] it was 382 nM; in test [10], 515 nM; in test [11], 957 nM; in [12], 8440 nM. Moreover, the GI50 in [13] was found to be 381 nM; in test [14], 1300 nM; in test [15] it was 1400 nM; in [16], 751 nM; in [17], 1320 nM; in test [18], 1470 nM. In addition, the GI50 in test [19] amounted to 649 nM; in [20] it was 397 nM; in test [21], 267 nM; in test [22], 1610 nM.
As for `COc1c(C)cc([P+](CCCCOc2cc(O)c3c(=O)cc(-c4ccccc4)oc3c2)(c2cc(C)c(OC)c(C)c2)c2cc(C)c(OC)c(C)c2)cc1C` [3f], the GI50 came to 367 nM in test [1]; 314 nM in test [2]; 371 nM in test [3]; 280 nM in [4]; 339 nM in test [5]; 78 nM in test [6]. Further, the GI50 in test [7] came to 165 nM; in [8], 34 nM; in test [9], 195 nM; in test [10], 329 nM; in test [11], 304 nM; in test [12], 1580 nM. For the same compound, the GI50 in test [13] turned out to be 334 nM; in [14], 335 nM; in test [15], 240 nM; in test [16] it was 367 nM; in test [17], 292 nM; in test [18] it was 263 nM. Also, the GI50 in [19] is 323 nM; in [20], 121 nM; in test [21] it was 298 nM; in [22], 277 nM.
